Test results from US10722484B2, “Methods of cancer treatment” (K-Gen, Inc., priority 2016, dated 2020).
Read-outs that look alike come from different tables or passages of the source.

Columns and labels:
Type in all cases: cell-based
Panc2.13 = assay: Combination viability/proliferation assays; conditions: Panc2.13; K101A at 1 μM or at 0.67 μM
Experimental: (§1) A 96-well MacSynergy II format for combination test was also used. […] The analysis was done with the SQRT(Data) scale and the four parameter Hill curve was fitted using XLfit5.1 (the MacSynergy II Excel Spreadsheet) for the inhibition data. Synergy (positive number) or Antagonism (negative number) volumes were calculated. […] Three-dimensional MacSynergy II graphs were generated where positive values indicated synergism and negative values indicated antagonism.

MiaPaCa-2 = assay: Combination viability/proliferation assays
Experimental: as §1

[1] = tested on: A549 lung cancer cell line; assay: Combination viability/proliferation assays (384-well IC50 ratio, 96-well MacSynergy II)
Experimental: as §1

Ratio ([…] DMSO IC50/combination IC50) ([1]; A549, in combination with 0.013 μM K102)	Ratio ([…] DMSO IC50/combination IC50) ([1]; A549, in combination with 0.04 μM K102)	Ratio ([…] DMSO IC50/combination IC50) ([1]; A549, in combination with 0.33 uM K101A)	Ratio ([…] DMSO IC50/combination IC50) ([1]; A549, in combination with 1 uM K101A)	Structure (SMILES)	effect in combination with K101A (Panc2.13)	effect in combination with low doses of K101A or K102 (MiaPaCa-2; K101A (0.166 and 1 μM) or K102 (0.0017 and 0.005 μM))	effect in combination with K101A or K102 in inhibiting the growth of A549 cells ([1]; K101A or K102)	Combination in A549: K101A (synergism/antagonism) ([1]; agent assayed in combination with K101A, A549, * 2-3 concentrations, # full concentration ranges)	Combination in A549: K102 (synergism/antagonism) ([1]; agent assayed in combination with K102, A549, * 2-3 concentrations, # full concentration ranges)	inhibition of proliferation by the agent alone (MiaPaCa-2; alone at 10 μM)	effect in combination with K101A or K102 (synergy) (MiaPaCa-2; at 1 μM)	effect in combination with K101A or K102 (MiaPaCa-2; at 10 μM)	Combination in A549: K101A (synergism/antagonism) [1]	Combination in A549: K102 (synergism/antagonism) [1]	effect in combination with the PKC activator compounds in inhibiting the growth of A549 cells [1]	inhibition of cell proliferation by the agent alone [1]
>2	>2	2.55	4.23	O=c1nc(-c2ccc(C(F)(F)F)cc2)[nH]c2c1CSCC2 [XAV-939, 2-[4-(trifluoromethyl)phenyl]-1,5,7,8-tetrahydrothiopyrano[4,3-d]pyrimidin-4-one]	strong synergy	additive effects	strong synergistic effect	Synergism	Synergism							
				CS(=O)(=O)c1ccc(C(=O)Nc2ccc(Cl)c(-c3ccccn3)c2)c(Cl)c1 [Vismodegib]						did not inhibit	not	synergy	Synergism	Synergism	strong synergy	did not inhibit
